# Results from PMC11173529, “Structure–Activity Relationship Studies in a Series of Xanthine Inhibitors of SLACK Potassium Channels” (Molecules, 2024).
# Read-outs that look alike come from different tables or passages of the source.
# Columns and labels:
# SLACK = system: SLACK; set-up: method as in PMID 33859800; conditions: whole-cell patch-clamp electrophysiology; read-out: IC50 versus WT SLACK; cited from earlier work
# GABAA Cl– channels = system: GABAA Cl– channels; set-up: method as in PMID 33859800; conditions: binding displacement assay; cited from earlier work
# Kcnt1^L/L mice = system: Kcnt1^L/L mice; set-up: method as in PMID 36173683; conditions: mouse model using Kcnt1 L/L mice; cited from earlier work
# WT SLACK [1] = system: WT SLACK; set-up: method as in PMID 32408169; conditions: whole-cell patch-clamp electrophysiology; read-out: IC50 versus WT SLACK; cited from earlier work
# hERG (KV11.1) channels = system: hERG (KV11.1) channels; set-up: method as in PMID 32408169; conditions: at 10 µM; cited from earlier work
# WT SLACK [2] = system: WT SLACK; set-up: method as in earlier work; conditions: APC assay; read-out: IC50 versus WT SLACK; cited from earlier work
# A934T SLACK = system: A934T SLACK; set-up: method as in PMID 37812884; conditions: Tl+-flux assay; read-out: IC50 versus A934T SLACK; cited from earlier work
# [3] = set-up: method as in PMID 37812884; conditions: cited from earlier work
# WT SLACK [4] = system: WT SLACK; set-up: method as in PMID 37812884; conditions: whole-cell APC, CHO cells stably expressing WT SLACK; read-out: IC50 versus WT SLACK; cited from earlier work
# hERG channel = system: hERG channel; set-up: method as in PMID 33143429; conditions: Tl+-flux assay; cited from earlier work
# [5] = system: co-cultures of cortical neuronal and glial cells; set-up: method as in PMID 33143429; conditions: cited from earlier work
# WT SLACK [6] = system: WT SLACK; set-up: method as in PMID 33143429; conditions: whole-cell APC, HEK-293 cells; read-out: IC50 versus WT SLACK; cited from earlier work
# WT hSLACK = biological target: T1, WT hSLACK (Homo sapiens, UniProt Q5JUK3); assay: Whole-cell automated patch-clamp (APC) in CHO cells stably expressing WT hSLACK; assay type: cell-based; conditions: for SLACK Imax: maximum inhibition at 30 µM test compound standardized to VU0606170 (set at 100%), WT hSLACK; for IC50: whole-cell APC, CHO cells stably expressing WT hSLACK, averages n ≥ 3, read-out: SLACK IC50
# T1 construct: host or cells: CHO-K1
# T1 sequence (Q5JUK3 1-1235 isoform Q5JUK3-3): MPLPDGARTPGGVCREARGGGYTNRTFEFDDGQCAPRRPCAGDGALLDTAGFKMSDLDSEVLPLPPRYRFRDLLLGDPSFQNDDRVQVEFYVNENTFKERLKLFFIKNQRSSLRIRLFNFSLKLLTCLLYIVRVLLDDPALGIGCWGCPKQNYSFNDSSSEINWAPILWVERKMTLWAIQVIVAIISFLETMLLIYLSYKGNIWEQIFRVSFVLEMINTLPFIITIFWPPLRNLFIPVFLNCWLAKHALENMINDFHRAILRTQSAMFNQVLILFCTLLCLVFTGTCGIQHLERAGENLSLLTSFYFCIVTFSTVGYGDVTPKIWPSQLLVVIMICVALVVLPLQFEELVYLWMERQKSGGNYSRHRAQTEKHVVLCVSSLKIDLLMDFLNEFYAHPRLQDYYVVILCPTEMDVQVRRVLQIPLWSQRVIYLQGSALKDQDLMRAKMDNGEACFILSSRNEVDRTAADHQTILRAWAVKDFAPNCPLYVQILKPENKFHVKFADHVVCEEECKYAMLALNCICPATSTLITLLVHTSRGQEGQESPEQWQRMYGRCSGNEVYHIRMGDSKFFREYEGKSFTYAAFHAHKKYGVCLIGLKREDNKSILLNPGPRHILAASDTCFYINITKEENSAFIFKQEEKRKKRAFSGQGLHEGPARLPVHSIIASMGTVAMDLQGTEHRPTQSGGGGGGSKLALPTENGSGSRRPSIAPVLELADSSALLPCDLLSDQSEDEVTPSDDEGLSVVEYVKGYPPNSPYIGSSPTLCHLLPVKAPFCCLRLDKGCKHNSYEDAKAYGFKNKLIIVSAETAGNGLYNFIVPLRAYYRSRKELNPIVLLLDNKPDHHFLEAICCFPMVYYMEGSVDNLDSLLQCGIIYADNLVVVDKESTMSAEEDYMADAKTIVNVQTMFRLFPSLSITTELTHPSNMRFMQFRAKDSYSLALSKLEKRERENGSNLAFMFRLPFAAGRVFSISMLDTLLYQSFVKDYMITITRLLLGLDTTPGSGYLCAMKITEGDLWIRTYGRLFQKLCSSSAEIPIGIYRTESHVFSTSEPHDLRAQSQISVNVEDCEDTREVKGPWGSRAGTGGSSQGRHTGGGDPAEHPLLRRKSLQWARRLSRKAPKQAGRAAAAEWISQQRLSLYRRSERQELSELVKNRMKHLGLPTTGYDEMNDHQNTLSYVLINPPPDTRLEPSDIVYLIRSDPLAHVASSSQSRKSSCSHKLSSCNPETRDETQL
# Experimental: All new analogs were tested in our APC assay using CHO cells stably expressing WT SLACK using a concentration-response format with concentrations ranging from 0.125 to 30 μM in half-log steps and a minimum of three cells (replicates) per concentration series. […] Still, there were some notable results. For example, substitution at the 4-position was largely unfavorable regardless of the nature of the substituent (21, 24, 27, 30, and 33) apart from the 4-fluoro analog 18. […] As the trifluoromethyl group is similar in electronegativity to chlorine, but larger than both methyl and chlorine, perhaps the steric bulk of the trifluoromethyl is to blame for the poor potency of these analogs. With the exception of the fluoro (16–18) and cyano (28–30) analogs, substitution at the 3-position was favorable for SLACK activity, with 3-methoxy analog 32 standing out in this set.
# Stably transfected monoclonal HEK293 cell lines expressing Slick, Maxi-K α1/β3, Maxi-K α1/β4, CaV3.2, GIRK 1/2, KV2.1, KV7.2, NaV1.7, and TASK-1 were generated as previously described. Stably transfected monoclonal HEK293 cell lines expressing hERG were generated as previously described. CHO-K1 cells expressing human Slack and disease-associated human Slack mutations, G288S and A934T, were generated by transfecting a PiggyBac TRE mammalian expression vector (VectorBuilder, Chicago, IL, USA) containing KCNT1. FuGENE 6 (Promega, Madison, WI, USA) transfection reagent and protocol, together with Opti-MEM (Thermo Fisher Scientific, Walkham, MA, USA), were utilized.
# Automated patch-clamp recording was performed with a SyncroPatch 768 PE system (Nanion, Munich, Germany) as previously described. Whole-cell recordings were performed at room temperature. Cells were harvested by first washing with PBS without Mg^2+ or Ca^2+ (Gibco, Billings, MT, USA) to remove cell culture media, followed by dissociation with TryPLE (Gibco, Billings, MT, USA). Cells were then resuspended and diluted to 100,000 cells/mL in external solution. External solution contained 105 mM NaCl, 4 mM KCl, 1 mM MgCl2, 5 mM CaCl2, 10 mM HEPES, and 40 mM N-Methyl-D-glucamine chloride, titrated to pH of 7.4 and osmolarity of 300 mOsm/kg; internal solution contained 70 mM NaCl, 70 mM KF, 10 mM KCl, 5 mM EGTA, and 5 mM HEPES, titrated to a pH of 7.2 and osmolarity of 295 mOsm/kg.
# The APC protocol was set as follows: Cells were held at a […] of −80 mV for 100 ms, then a ramp protocol was performed from −100 mV to 80 mV at 0.4 mV/ms, followed by holding the cell at −80 mV for another 100 ms, then steps were performed at −20 mV, 0 mV, +20 mV, +40 mV, and +60 mV for 100 ms of each step. Whole-cell currents were measured at 0 mV and normalized to current after external buffer addition. […] To obtain the concentration-response relationship graphs and IC50 values, we take the median value of the last 7 current amplitude values obtained for each set of data points collected for a given concentration at a particular step.
Compound,SLACK Imax (WT hSLACK) [%],IC50 (WT hSLACK) [nM],other results
C[C@H](NC(=O)c1cc(C(F)(F)F)nn1C)c1nc(-c2ccnc(C(F)(F)F)c2)no1 [Compound 4],–,–,IC50 (SLACK): 40 nM; displacement at GABAA Cl– channels (GABAA Cl– channels): 74%; anticonvulsant effects (Kcnt1^L/L mice): demonstrated anticonvulsant effects
O=C(Nc1cccc(C(F)(F)F)c1)c1ccc(CSc2nnnn2-c2ccccc2)cc1 [Compound 3],–,–,IC50 (WT SLACK [1]): 1600 nM; hERG (KV11.1) inhibition (hERG (KV11.1) channels): 45%
O=C(N[C@@H]1CCc2cc(Cl)ccc21)c1ccc(S(=O)(=O)N2CCCC2)s1 [Compound 5],–,–,IC50 (WT SLACK [2]): < 1000 nM
O=C(Nc1cccc(C(F)(F)F)c1)c1ccc2nc(N3C(=O)c4ccccc4C3=O)sc2c1 [Compound 2],–,–,IC50 (WT SLACK [1]): 3000 nM; hERG (KV11.1) inhibition (hERG (KV11.1) channels): 10–20%
Cc1ccc2cccc(S(=O)(=O)N3CC(c4nc(-c5ccc(F)cc5)no4)C3)c2n1 [Compound 7],–,–,IC50 (A934T SLACK): 670 nM; metabolism in mouse liver microsomes [3]: rapidly metabolized; IC50 (WT SLACK [4]): 320 nM
COc1ccc(Cl)cc1NC(=O)CN1CCN(S(=O)(=O)N2CCC(C)CC2)CC1 [Compound 6],–,–,IC50 (hERG channel): > 10000 nM; frequency of spontaneous calcium oscillations [5]: inhibited the frequency of spontaneous calcium oscillations; IC50 (WT SLACK [6]): 1700 nM
Cc1cccc(CC(=O)Nc2cnn(-c3cccc(C(=O)NCc4ccccc4-n4cncn4)c3)c2)c1 [Compound 1],–,–,IC50 (WT SLACK [1]): 3200 nM; hERG (KV11.1) inhibition (hERG (KV11.1) channels): almost completely inhibited
Cc1ccc(CN(C)c2nc3c(c(=O)n(Cc4ccccc4)c(=O)n3C)n2C)cc1 [Analog 55],100,1800,–
CN(Cc1ccccc1)c1nc2c(c(=O)n(Cc3ccccc3F)c(=O)n2C)n1C [Analog 16],100,1800,–
CN(Cc1cccc(C(F)(F)F)c1)c1nc2c(c(=O)n(Cc3ccccc3)c(=O)n2C)n1C [Analog 57],101,1500,–
CN(Cc1ccccc1F)c1nc2c(c(=O)n(Cc3ccccc3)c(=O)n2C)n1C [Analog 47],100,2700,–
CN(Cc1cccc(Cl)c1)c1nc2c(c(=O)n(Cc3ccccc3)c(=O)n2C)n1C [Analog 51],100,1700,–
CN(Cc1cccnc1)c1nc2c(c(=O)n(Cc3ccccc3)c(=O)n2C)n1C [Analog 63],20,> 10000,–
CN(Cc1ccncc1)c1nc2c(c(=O)n(Cc3ccccc3)c(=O)n2C)n1C [Analog 64],70,> 10000,–
CN(Cc1ccccc1)c1nc2c(c(=O)n(Cc3ccc(C(F)(F)F)cc3)c(=O)n2C)n1C [Analog 27],79,9700,–
